Assay results published in patent US11337983B2, “Dactinomycin compositions and methods for the treatment of acute myeloid leukemia” (priority 2015, dated 2022).
“Also recorded” adds a separate entry of the source. *1 amine or outer side, *2 acyl side, *3 side chain or, on linkers, in order; H or OH if unused. Where a SMILES comes first, the peptide text is derived from it. Bridges are numbered along the chain shown (N, C = ends). Roman numbers before positions name the chains, in order. [ ]: non-standard residue; d: D form. Actinocin(9to1) = Cc1c2oc3c(C)ccc(C(=O)[*:1])c3nc-2c(C(=O)[*:2])c(N)c1=O; NMeV = CN[CH](C(=O)O)C(C)C; Sar = CNCC(=O)O

Assays:
Type in all cases: in vivo, human
[1] = tested on: NPM1-mutated AML without FLT3 internal tandem duplication mutations; experiment: Dactinomycin single-agent treatment of a patient with NPM1-mutated AML (response)
Method: (§1) A patient with NPM1-mutated AML without FLT3 internal tandem duplication mutations was treated with dactinomycin. Because dactinomycin lacks cardiotoxicity, a patient was selected for whom intensive chemotherapy was not appropriate owing to a low left ventricular ejection fraction (35%). […] Therefore, with the patient's consent, dactinomycin was administered as an off-label single agent (approved by the institutional review board at Perugia Hospital), at a dose of 12.5 μg per kilogram of body weight per day for 5 consecutive days, as recommended for low-risk gestational trophoblastic tumors. […] Four more cycles were administered for a total of six cycles, at intervals of 3 to 4 weeks.
The progressive decrease in NPM1 mutant transcripts (until the achievement of negativity for minimal residual disease) is reminiscent of dactinomycin-induced normalization of serum levels of human chorionic gonadotropin in patients with gestational trophoblastic tumors.

[2] = tested on: refractory or relapsed NPM1-mutated AML; experiment: Dactinomycin treatment of six additional patients with refractory or relapsed NPM1-mutated AML; settings: 15.0 μg per kilogram per day for 5 consecutive days, cycles
Method: Six additional patients with refractory or relapsed NPM1-mutated AML were treated with cycles of dactinomycin at a dose of 15.0 μg per kilogram per day for 5 consecutive days.

[3] = Adverse events and hematologic toxic effects during dactinomycin treatment of the patient
Method: as §1
The number of days with a hemoglobin level of less than 8 g per deciliter, severe thrombocytopenia (a platelet count of <20,000 per cubic millimeter), and severe neutropenia (a neutrophil count of <500 per cubic millimeter) are reported for cycles 1 through 6. A total of 8 units of red cells and 4 units of platelets were transfused during cycle 1, and 4 units of red cells and 1 unit of platelets were transfused during cycle 2.

[4] = after two cycles of dactinomycin

With `Cc1c2oc3c(C)ccc(C(=O)NC4C(=O)NC(C(C)C)C(=O)N5CCCC5C(=O)N(C)CC(=O)N(C)C(C(C)C)C(=O)OC4C)c3nc-2c(C(=O)NC2C(=O)NC(C(C)C)C(=O)N3CCCC3C(=O)N(C)CC(=O)N(C)C(C(C)C)C(=O)OC2C)c(N)c1=O` (stereo not shown) [dactinomycin, 2-amino-N,N′-bis(hexadecahydro-2,5,9-trimethyl-6,13-bis(1-methylethyl)-1,4,7,11,14-pentaoxo-1H-pyrrolo(2,1-I)(1,4,7,10,13)oxatetra-azacyclohexadecin-10-yl)-4,6-dimethyl-3-oxo-3H-phenoxazine-1,9-dicarboxamide] (I: TVP[Sar][NMeV] / II: TVP[Sar][NMeV]; ester I:1-I:C, II:1-II:C; linker I:N-II:N via Actinocin(9to1); configuration not given here) the “Morphologic and immunohistochemical (hematologic) complete remission” value ([1]; 12.5 μg per kilogram per day for 5 consecutive days per cycle, patient) was “hematologic complete remission; also recorded: complete remission was achieved after two cycles of therapy”, the “Immunostaining with anti-NPM1 monoclonal antibody of bone marrow cells” value [1, 4] was “nucleus-restricted positivity for NPM1” and the “Leukemic blasts in bone marrow aspirate (MGG staining)” value [1, 4] was “less than 5%”. The “Molecular complete remission / negativity for minimal residual disease (quantitative RT-PCR for mutant copies of NPM1)” value ([1]; bone marrow samples, 12.5 μg/kg/day x 5 days per cycle) was “Negativity for minimal residual disease was achieved after the fourth cycle; also recorded: molecular complete remission after the fourth cycle”, the “Mutant copies of NPM1 in bone marrow samples (RT-PCR, copies per 100 copies of Abl)” value ([1]; during dactinomycin treatment) was “progressive reduction in copies” and the “Duration of morphologic and molecular complete remission” value ([1]; six cycles at intervals of 3 to 4 weeks) was 14 months. For the same compound, the “Hematologic complete remission (patients of six treated)” value [2] was “achieved in two patients”, the “Need for red-cell or platelet transfusions” value ([3]; after cycle 2 (cycles 3 through 6)) was “no need for blood transfusions; also recorded: No red-cell or platelet transfusions were necessary” and the “Number of days with Hb <8 g/dl” value ([3]; cycle 1) was 3 days. For the same compound, the “Number of days with PLT <20000/mm^3” value ([3]; cycle 1) was 13 days, the “Number of days with PMN <500/mm^3” value ([3]; cycle 1) was 26 days and the Platelets transfused ([3]; cycle 1) was 4 units. The Red cells transfused ([3]; cycle 1) was 8 units, the “Number of days with Hb <8 g/dl” value ([3]; cycle 2) was 3 days and the “Number of days with PLT <20000/mm^3” value ([3]; cycle 2) was 2 days. For the same compound, the “Number of days with PMN <500/mm^3” value ([3]; cycle 2) was 6 days, the Platelets transfused ([3]; cycle 2) was 1 unit and the Red cells transfused ([3]; cycle 2) was 4 units. The “Number of days with Hb <8 g/dl” value ([3]; cycle 3) was 0 days, the “Number of days with PLT <20000/mm^3” value ([3]; cycle 3) was 0 days and the “Number of days with PMN <500/mm^3” value ([3]; cycle 3) was 4 days. For the same compound, the “Number of days with Hb <8 g/dl” value ([3]; cycle 4) was 0 days, the “Number of days with PLT <20000/mm^3” value ([3]; cycle 4) was 0 days and the “Number of days with PMN <500/mm^3” value ([3]; cycle 4) was 4 days. The “Number of days with Hb <8 g/dl” value ([3]; cycle 5) was 0 days, the “Number of days with PLT <20000/mm^3” value ([3]; cycle 5) was 0 days and the “Number of days with PMN <500/mm^3” value ([3]; cycle 5) was 4 days. The “Number of days with Hb <8 g/dl” value ([3]; cycle 6) was 0 days, the “Number of days with PLT <20000/mm^3” value ([3]; cycle 6) was 0 days and the “Number of days with PMN <500/mm^3” value ([3]; cycle 6) was 3 days. The Skin adverse event ([3]; during cycle 2) was “superficial skin erosions”, the “Febrile neutropenia and thrombocytopenia (adverse event grade)” value ([3]; during cycles 1 and 2) was 4 grade and the “Oral mucositis (adverse event grade)” value ([3]; during cycles 1 through 3) was 2 grade.
In the case of `Nc1ncn([C@@H]2O[C@H](CO)[C@@H](O)[C@H]2O)c(=O)n1` [azacitidine], the “Course of leukemia after prior therapy” value ([1]; initial single cycle of azacitidine, before dactinomycin) is reported as “Leukemia had progressed”.
